Assay results as given in patent US9157062B2, “Compositions and methods for promoting the generation of PDX1+ pancreatic cells” (President and Fellows of Harvard College, priority 2008, dated 2015).
Structures can show the parent of a compound that is named as a salt. Where two headings read alike, the source gives them in different places.

B1: FGF10: mitogen (fibroblast growth factor) reported to be involved in pancreatic development, from R&D systems (protein, UniProt O15520 38-208, looked up)
Fibroblast growth factor 10: QALGQDMVSPEATNSSSSSFSSPSSAGRHVRSYNHLQGDVRWRKLFSFTKYFLKIEKNGKVSGTKKENCPYSILEITSVEIGVVAVKAINSNYYLAMNKKGKLYGSKEFNNDCKLKERIEENGYNTYASFNWQHNGRQMYVALNGKGAPRRGQKTRRKNTSAHFLPMVVHS

What was measured:
[1] = test system: HUES8-derived population (Pdx1+ cells); test: Pdx1 antibody staining of treated HUES8-derived population; assay type: cell-based, human; conditions: for percentage of Pdx1+ cells, PKC antagonists in the presence of ILV: 300 nM ILV plus 1 μM BISI or 10 μM Gö 6983, 4 days; for percentage of Pdx1+ cells, PKC agonists in the absence of ILV: HUES8-derived definitive endoderm population, 500 nM TPB or 14 nM PMA
Description: (§1) To generate a starting population, HUES cells were cultured on MEF feeder cells until 80-90% confluent, then treated with 25 ng/ml Wnt3a (R&D systems)+100 ng/ml Activin A (R&D systems) in advanced RPMI (A-RPMI, Invitrogen) supplemented with 1×L-Glu and 1×PS for 1 day, and then 100 ng/ml Activin A in A-RPMI supplemented with 1×L-Glu, 1×PS and 0.2% FBS (Invitrogen). Two days later, the media was changed to 50 ng/ml FGF10 (R&D systems)+0.25 μM KAAD-CYC (Calbiochem) in A-RPMI supplemented with 1×L-Glu, 1×PS and 2% FBS and maintained for additional 2 days. Cells were then transferred to 50 ng/ml FGF10+0.25 μM KAAD-CYC+2 μM RA (Sigma) in DMEM supplemented with 1×L-Glu, 1×PS, 1×B27 (Invitrogen) and cultured for an additional 4 days. ILV was obtained from Axxora, KAAD-CYC, TPB, PMA, BISI, Gö 6983, U0126 and PD98059 were obtained from Calbiochem and RA were obtained from Sigma.
(§2) Cells were fixed with 10% formalin solution (Sigma) for 20 min at room temperature. Immunostaining was carried out with standard protocols. The following primary antibodies were used: goat anti-Pdx1 (1:500; R&D system); rabbit anti-FOXA2 (1:500; Upstate); rabbit anti-HNF6 (1:200; Santa Cruz Biotech); guinea pig anti-insulin (1:1000; Dako); rabbit anti-c-peptide (1:500; Linco); rabbit anti-amylase (1:200, Sigma); goat anti-HNF1β (1:100, Santa Cruz Biotech); and biotinylated DBA (1:400; Vector Lab). Alexa-488-, Alexa-555, and Alexa-647-conjugated donkey antibodies against mouse, rabbit, guinea pig and goat, and Pacific Blue conjugate-streptavidin (Invitrogen) were used at 1:300 dilution.
To determine whether PKC signaling is being activated in HUES-derived cells, HUES8-derived definitive endoderm population was treated with two PKC agonists, TPB ((2S,5S)-(E,E)-8-(5-(4-(trifluoromethyl)phenyl)-2,4-pentadienoylamino)benzolactam) and PMA (phorbol-12-myristate-13-acetate), in the absence of ILV. […] Furthermore, HUES8-derived population was treated with two PKC antagonists, BISI (Bisindolylmaleimide I) and Gö 6983, in the presence of ILV.
Experiments were performed to monitor downstream signaling by PKC. Since ERK signaling has been reported to be regulated by PKC (Ueda et al., 1996), the activity of ERK signaling was examined with Western blotting to detect the phosphorylation of ERK1/2 at Thr-202/Tyr-204.

[2] = test system: HUES9-derived population (Pdx1+ cells); test: High throughput screen for compounds increasing Pdx1+ cells; assay type: cell-based, human; conditions: HUES9-derived cells, 10 μM, 1 μM and 0.1 μM, four days
Description: as §1
For a high throughput screen, the starting material was hESCs (HUES9 cells) that were induced to pancreatic lineage using a slightly modified version of previously published protocols (D'Amour et al., 2006; Jiang et al., 2007), as described in Example 1. After 9 days of stepwise differentiation, a heterogeneous population of cells was generated containing cells that stained strongly, weakly or not at all with a Pdx1 antibody. Any cell that stained with the Pdx1 staining antibody was counted as Pdx1^+ cells regardless of staining intensity. Together, the Pdx1^+ cells comprises 5.1±1.8% of the total cell number.
To carry out the screen, the cells were trypsinized and plated on 804G-coated 384-well plates at 6000 cells/well using chemically defined media (DMEM supplemented with 2 mM L-Glu, 1×PS, 1×B27). After overnight incubation, compounds were screened by adding them to provide a final concentration of 10 μM, 1 μM and 0.1 μM. Four days later, the cells were stained with Pdx1 antibody and the plates were analyzed with Opera high content screening system (PerkinElmer).
The wells in which the percentage of Pdx1^+ cells is higher than present at day 1 and higher than day 5 treated with DMSO were selected as primary hits. Compounds that increase both the number and percentage of Pdx1^+ cells were picked as primary hits. Eleven compounds produced hits. (FIG. 7, Table I in FIG. 9 and formulas in FIG. 10). These eleven compounds were (−)-Indolactam V (FIG. 1c and Compound I in Table 1) boldine (Compound II), rotenone (Compound III), ethopropazine hydrochloride (Compound IV), cedrelone (Compound V), prieurianin (Compound VI), strophanthidin (Compound VII), trimeprazine tartrate (Compound VIII), terconazole (Compound IX), dimethisoquin hydrochloride (Compound X), harmine hydrochloride (Compound XI).
as §2

PKCμ = molecular target: T1, PKCμ (Homo sapiens, UniProt Q15139); conditions: Gschwendt et al., 1996; cited from earlier work
T1 sequence (Q15139 1-912): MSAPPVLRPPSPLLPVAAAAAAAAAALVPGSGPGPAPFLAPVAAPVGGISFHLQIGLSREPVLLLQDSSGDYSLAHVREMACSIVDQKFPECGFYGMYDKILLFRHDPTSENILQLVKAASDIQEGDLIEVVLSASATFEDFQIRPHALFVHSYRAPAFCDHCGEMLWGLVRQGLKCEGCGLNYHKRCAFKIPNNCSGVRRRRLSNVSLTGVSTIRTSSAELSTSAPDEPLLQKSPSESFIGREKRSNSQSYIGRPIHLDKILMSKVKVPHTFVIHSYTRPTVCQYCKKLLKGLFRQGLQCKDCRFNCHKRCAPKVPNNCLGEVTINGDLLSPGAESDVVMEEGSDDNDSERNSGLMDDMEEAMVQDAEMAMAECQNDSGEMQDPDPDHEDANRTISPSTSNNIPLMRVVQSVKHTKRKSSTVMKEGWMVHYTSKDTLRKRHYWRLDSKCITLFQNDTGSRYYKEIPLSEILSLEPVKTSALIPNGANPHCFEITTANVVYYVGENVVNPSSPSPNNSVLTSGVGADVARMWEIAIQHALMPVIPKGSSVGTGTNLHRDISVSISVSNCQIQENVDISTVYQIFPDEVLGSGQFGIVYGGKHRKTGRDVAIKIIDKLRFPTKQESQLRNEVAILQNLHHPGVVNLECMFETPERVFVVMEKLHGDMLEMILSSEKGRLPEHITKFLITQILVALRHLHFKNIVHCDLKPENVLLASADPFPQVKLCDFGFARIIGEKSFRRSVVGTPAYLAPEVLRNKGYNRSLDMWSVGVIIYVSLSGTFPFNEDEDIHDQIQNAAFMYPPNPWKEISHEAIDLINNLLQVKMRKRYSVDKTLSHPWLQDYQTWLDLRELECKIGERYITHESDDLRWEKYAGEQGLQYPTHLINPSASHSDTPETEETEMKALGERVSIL

| Molecule | primary hits (increase both the number and percentage of Pdx1+ cells) [2] | further results |
| --- | --- | --- |
| CN(C)CCCn1cc(C2=C(c3c[nH]c4ccccc34)C(=O)NC2=O)c2ccccc21 [BISI, Bisindolylmaleimide I] | – | percentage of Pdx1+ cells, PKC antagonists in the presence of ILV ([1]; HUES8-derived population): 0.6±0.1% |
| C[C@]12CC[C@H]3[C@@H](CC[C@]4(O)C[C@@H](O)CC[C@]34C=O)[C@@]1(O)CC[C@@H]2C1=CC(=O)OC1 [Compound VII, strophanthidin] | hits | – |
| CCCCCCCCCCCCCC(=O)O[C@@H]1[C@@H](C)[C@@]2(O)[C@@H](C=C(CO)C[C@]3(O)C(=O)C(C)=C[C@@H]23)[C@@H]2C(C)(C)[C@]12OC(C)=O [PMA, phorbol-12-myristate-13-acetate] | – | percentage of Pdx1+ cells, PKC agonists in the absence of ILV ([1]; 4 days): 21.3±4.0% |
| C=C(C)[C@H]1Cc2c(ccc3c2O[C@@H]2COc4cc(OC)c(OC)cc4[C@@H]2C3=O)O1 [Compound III, rotenone] | hits | – |
| C=C1[C@@H]([C@@]2(C)[C@@H](OC(C)=O)CC(=O)O[C@](C)(COC(C)=O)[C@@H]2C(=O)OC)[C@@H](OC=O)[C@H](OC(=O)[C@H](O)[C@H](C)CC)[C@@]2(C)[C@H](c3ccoc3)CC(=O)[C@]12O [Compound VI, prieurianin] | hits | – |
| CC(C)N1CCN(c2ccc(OCC3COC(Cn4cncn4)(c4ccc(Cl)cc4Cl)O3)cc2)CC1 (stereo not drawn) [Compound IX, terconazole] | hits | – |
| CC(C)[C@H]1C(=O)N[C@H](CO)Cc2cc(NC(=O)/C=C/C=C/c3ccc(C(F)(F)F)cc3)ccc2N1C [TPB, (2S,5S)-(E,E)-8-(5-(4-(trifluoromethyl)phenyl)-2,4-pentadienoylamino)benzolactam] | – | percentage of Pdx1+ cells, PKC agonists in the absence of ILV ([1]; 4 days): 15.4±2.9% |
| COc1cccc(-c2cc(=O)c3ccccc3o2)c1N [PD098059] | – | percentage of Pdx1+ cells, MEK/ERK inhibitors together with ILV ([1]; 300 nM ILV plus 50 μM PD098059 or 10 μM U0126, 4 days): 0.4±0.2% |
| CC1(C)C(=O)C=C[C@@]2(C)C1=C(O)C(=O)[C@]1(C)[C@@H]2CC[C@@]2(C)[C@H](c3ccoc3)C[C@H]3O[C@]321 [Compound V, cedrelone] | hits | – |
| COc1cc2c(cc1O)C[C@H]1c3c(cc(O)c(OC)c3-2)CCN1C [Compound II, boldine] | hits | – |
| N#CC(=C(/N)Sc1ccccc1N)/C(C#N)=C(\N)Sc1ccccc1N [Compound U0126] | – | percentage of Pdx1+ cells, MEK/ERK inhibitors together with ILV [1]: 0.3±0.2% |
| COc1ccc2c(c1)c(C1=C(c3c[nH]c4ccccc34)C(=O)NC1=O)cn2CCCN(C)C [Gö 6983] | – | suppression of PKCμ kinase activity (PKCμ): not effective; percentage of Pdx1+ cells, PKC antagonists in the presence of ILV ([1]; HUES8-derived population): 0.8±0.2% |
| CCN(CC)C(C)CN1c2ccccc2Sc2ccccc21 (stereo not drawn) [Compound IV, ethopropazine hydrochloride] | hits | – |
| CCCCc1cc2ccccc2c(OCCN(C)C)n1 [Compound X, dimethisoquin hydrochloride] | hits | – |
| COc1ccc2c(c1)[nH]c1c(C)nccc12.Cl [Compound XI, harmine hydrochloride] | hits | – |
| trimeprazine tartrate [Compound VIII] | hits | – |
| B1 | – | percentage of cells stained by Pdx1 antibody ([1]; HUES8-derived population, 4 days, 300 nM ILV and/or 50 ng/ml FGF10): 5.7±2.3% |
